Laboratory results published in patent US20230150970A1, “AMINOPYRIMIDINE DERIVATIVES AND THEIR USE AS ARYL HYDROCARBON RECEPTOR MODULATORS” (DONG-A ST CO., LTD., priority 2020, published 2023).

Target: T1, AhR (Homo sapiens, UniProt P35869)
T1 sequence (P35869 11-848): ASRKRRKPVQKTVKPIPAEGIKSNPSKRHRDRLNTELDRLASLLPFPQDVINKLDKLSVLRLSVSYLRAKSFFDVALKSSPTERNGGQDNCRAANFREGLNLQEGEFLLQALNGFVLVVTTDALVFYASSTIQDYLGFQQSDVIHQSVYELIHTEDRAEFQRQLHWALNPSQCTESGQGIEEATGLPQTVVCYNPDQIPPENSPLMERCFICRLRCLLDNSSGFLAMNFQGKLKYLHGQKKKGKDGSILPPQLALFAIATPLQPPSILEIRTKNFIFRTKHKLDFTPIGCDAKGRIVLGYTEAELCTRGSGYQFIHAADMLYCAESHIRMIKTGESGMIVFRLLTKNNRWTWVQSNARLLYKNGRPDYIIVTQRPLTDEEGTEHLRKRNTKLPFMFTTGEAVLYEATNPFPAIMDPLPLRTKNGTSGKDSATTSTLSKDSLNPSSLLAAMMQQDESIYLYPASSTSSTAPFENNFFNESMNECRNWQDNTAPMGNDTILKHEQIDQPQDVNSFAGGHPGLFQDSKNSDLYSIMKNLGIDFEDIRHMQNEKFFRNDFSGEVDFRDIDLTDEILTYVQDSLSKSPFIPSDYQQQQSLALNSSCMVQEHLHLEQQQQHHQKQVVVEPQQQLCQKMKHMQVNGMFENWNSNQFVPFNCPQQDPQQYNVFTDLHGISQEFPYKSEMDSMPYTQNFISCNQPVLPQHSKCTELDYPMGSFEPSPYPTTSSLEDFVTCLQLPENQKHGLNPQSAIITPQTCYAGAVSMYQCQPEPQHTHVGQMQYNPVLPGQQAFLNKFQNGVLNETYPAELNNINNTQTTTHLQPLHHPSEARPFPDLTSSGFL
Experiment: In Vitro Assay 1: XRE-luciferase reporter assay, antagonism in human cell line (HepG2)
Conditions: Assay 1: AhR-Luc Human Antagonism (IC50, nM), unmarked values: kynurenine 200 μM, 6 hours

Compound	IC50
OC[C@H]1CCN(c2cc(-c3ccc(Cl)cc3)nc(-c3cccnc3)n2)C1 [Example 240, (S)-(1-(6-(4-chlorophenyl)-2-(pyridin-3-yl)pyrimidin-4-yl)pyrrolidin-3-yl)methanol]	< 10 nM
CC(=O)N[C@@H]1CN(c2cc(-c3ccc(Cl)cc3)nc(-c3cccnc3)n2)C[C@H]1O [Example 241, N-((3R,4R)-1-(6-(4-chlorophenyl)-2-(pyridin-3-yl)pyrimidin-4-yl)-4-hydroxypyrrolidin-3-yl)acetamide]	10 to 100 nM
CC(=O)N[C@H]1CN(c2cc(-c3ccc(Cl)cc3)nc(-c3cccnc3)n2)C[C@H]1O [Example 244, N-((3S,4R)-1-(6-(4-chlorophenyl)-2-(pyridin-3-yl)pyrimidin-4-yl)-4-hydroxypyrrolidin-3-yl)acetamide]	> 1000 nM
CC(=O)N[C@H]1CN(c2cc(-c3ccc(Cl)cc3)nc(-c3cccnc3)n2)C[C@@H]1O [Example 245, N-((3S,4S)-1-(6-(4-chlorophenyl)-2-(pyridin-3-yl)pyrimidin-4-yl)-4-hydroxypyrrolidin-3-yl)acetamide]	10 to 100 nM
OC[C@@H]1CCN(c2cc(-c3ccc(Cl)cc3)nc(-c3cccnc3)n2)C[C@@H]1F [Example 251, ((3R,4S)-1-(6-(4-chlorophenyl)-2-(pyridin-3-yl)pyrimidin-4-yl)-3-fluoropiperidin-4-yl)methanol]	< 10 nM
OC[C@@H]1CCN(c2cc(-c3ccc(C(F)(F)F)cc3)nc(-c3cccnc3)n2)C[C@@H]1F [Example 252, ((3R,4S)-3-fluoro-1-(2-(pyridin-3-yl)-6-(4-(trifluoromethyl)phenyl)pyrimidin-4-yl)piperidin-4-yl)methanol]	< 10 nM
OC[C@H]1CN(c2cc(-c3ccc(Cl)cc3)nc(-c3cccnc3)n2)C[C@H]1O [Example 255, (3S,4R)-1-(6-(4-chlorophenyl)-2-(pyridin-3-yl)pyrimidin-4-yl)-4-(hydroxymethyl)pyrrolidin-3-ol]	10 to 100 nM
OC[C@H]1CN(c2cc(-c3ccc(C(F)(F)F)cc3)nc(-c3cccnc3)n2)C[C@H]1O [Example 256, (3S,4R)-4-(hydroxymethyl)-1-(2-(pyridin-3-yl)-6-(4-(trifluoromethyl)phenyl)pyrimidin-4-yl)pyrrolidin-3-ol]	< 10 nM
OC[C@H]1CN(c2cc(-c3ccc(Cl)cc3)nc(-c3cccnc3)n2)C[C@@H]1O [Example 257, (3R,4R)-1-(6-(4-chlorophenyl)-2-(pyridin-3-yl)pyrimidin-4-yl)-4-(hydroxymethyl)pyrrolidin-3-ol]	< 10 nM
OC[C@H]1CCN(c2cc(-c3ccc(Cl)cc3)nc(-c3cccnc3)n2)C[C@@H]1O [Example 259, (3R,4R)-1-(6-(4-chlorophenyl)-2-(pyridin-3-yl)pyrimidin-4-yl)-4-(hydroxymethyl)piperidin-3-ol]	< 10 nM
OC[C@@H]1CN(c2cc(-c3ccc(Cl)cc3)nc(-c3cccnc3)n2)C[C@H]1O [Example 266, (3S,4S)-1-(6-(4-chlorophenyl)-2-(pyridin-3-yl)pyrimidin-4-yl)-4-(hydroxymethyl)pyrrolidin-3-ol]	< 10 nM
OC[C@@H]1CN(c2cc(-c3ccc(C(F)(F)F)cc3)nc(-c3cccnc3)n2)C[C@H]1O [Example 267, (3S,4S)-4-(hydroxymethyl)-1-(2-(pyridin-3-yl)-6-(4-(trifluoromethyl)phenyl)pyrimidin-4-yl)pyrrolidin-3-ol]	< 10 nM
Cc1ncccc1-c1nc(-c2ccc(C(F)(F)F)cc2)cc(N2CC[C@H](O)C2)n1 [Example 269, (S)-1-(2-(2-methylpyridin-3-yl)-6-(4-(trifluoromethyl)phenyl)pyrimidin-4-yl)pyrrolidin-3-ol]	< 10 nM
Oc1ncccc1-c1nc(-c2ccc(C(F)(F)F)cc2)cc(N2CC[C@H](O)C2)n1 [Example 270, (S)-3-(4-(3-hydroxypyrrolidin-1-yl)-6-(4-(trifluoromethyl)phenyl)pyrimidin-2-yl)pyridin-2-ol]	< 10 nM

The next lines start with the values.

IC50	Compound
10 to 100 nM	OCC1CCN(c2cc(-c3ccc(OC(F)(F)F)cc3)nc(-c3cccnc3)n2)CC1 [Example 227, (1-(2-(pyridin-3-yl)-6-(4-(trifluoromethoxy)phenyl)pyrimidin-4-yl)piperidin-4-yl)methanol]
10 to 100 nM	CC(O)C(=O)NC1CCN(c2cc(-c3ccc(Cl)cc3)nc(-c3cccnc3)n2)CC1 (centres unmarked) [Example 237, N-(1-(6-(4-chlorophenyl)-2-(pyridin-3-yl)pyrimidin-4-yl)piperidin-4-yl)-2-hydroxypropanamide]
10 to 100 nM	O=C(CO)NC1CCN(c2cc(-c3ccc(Cl)cc3)nc(-c3cccnc3)n2)CC1 [Example 238, N-(1-(6-(4-chlorophenyl)-2-(pyridin-3-yl)pyrimidin-4-yl)piperidin-4-yl)-2-hydroxyacetamide]
10 to 100 nM	CC(=O)N[C@@H]1CN(c2cc(-c3ccc(Cl)cc3)nc(-c3cccnc3)n2)C[C@H]1OC(C)=O [Example 242, (3R,4R)-4-acetamido-1-(6-(4-chlorophenyl)-2-(pyridin-3-yl)pyrimidin-4-yl)pyrrolidin-3-yl acetate]
10 to 100 nM	OC[C@H]1CCN(c2cc(-c3ccc(Cl)cc3)nc(-c3cccnc3)n2)C[C@H]1O [Example 247, (3S,4R)-1-(6-(4-chlorophenyl)-2-(pyridin-3-yl)pyrimidin-4-yl)-4-(hydroxymethyl)piperidin-3-ol]
10 to 100 nM	OC[C@H]1CCN(c2cc(-c3ccc(C(F)(F)F)cc3)nc(-c3cccnc3)n2)C[C@H]1O [Example 248, (3S,4R)-4-(hydroxymethyl)-1-(2-(pyridin-3-yl)-6-(4-(trifluoromethyl)phenyl)pyrimidin-4-yl)piperidin-3-ol]
10 to 100 nM	OC[C@H]1CCN(c2cc(-c3ccc(Cl)cc3)nc(-c3cccnc3)n2)C[C@H]1F [Example 249, ((3S,4R)-1-(6-(4-chlorophenyl)-2-(pyridin-3-yl)pyrimidin-4-yl)-3-fluoropiperidin-4-yl)methanol]
< 10 nM	OC[C@H]1CCN(c2cc(-c3ccc(C(F)(F)F)cc3)nc(-c3cccnc3)n2)C[C@H]1F [Example 250, ((3S,4R)-3-fluoro-1-(2-(pyridin-3-yl)-6-(4-(trifluoromethyl)phenyl)pyrimidin-4-yl)piperidin-4-yl)methanol]
< 10 nM	OC[C@H]1CCN(c2cc(-c3ccc(Cl)cc3)nc(-c3cccnc3)n2)C[C@@H]1F [Example 253, ((3R,4R)-1-(6-(4-chlorophenyl)-2-(pyridin-3-yl)pyrimidin-4-yl)-3-fluoropiperidin-4-yl)methanol]
< 10 nM	OC[C@H]1CCN(c2cc(-c3ccc(C(F)(F)F)cc3)nc(-c3cccnc3)n2)C[C@@H]1F [Example 254, ((3R,4R)-3-fluoro-1-(2-(pyridin-3-yl)-6-(4-(trifluoromethyl)phenyl)pyrimidin-4-yl)piperidin-4-yl)methanol]
< 10 nM	OC[C@@H]1CCN(c2cc(-c3ccc(Cl)cc3)nc(-c3cccnc3)n2)C[C@H]1O [Example 261, (3S,4S)-1-(6-(4-chlorophenyl)-2-(pyridin-3-yl)pyrimidin-4-yl)-4-(hydroxymethyl)piperidin-3-ol]
< 10 nM	Cc1ccncc1-c1nc(-c2ccc(C(F)(F)F)cc2)cc(N2CC[C@H](O)C2)n1 [Example 263, (S)-1-(2-(4-methylpyridin-3-yl)-6-(4-(trifluoromethyl)phenyl)pyrimidin-4-yl)pyrrolidin-3-ol]
10 to 100 nM	OC[C@@H]1CCN(c2cc(-c3ccc(Cl)cc3)nc(-c3cccnc3)n2)C[C@@H]1O [Example 264, (3R,4S)-1-(6-(4-chlorophenyl)-2-(pyridin-3-yl)pyrimidin-4-yl)-4-(hydroxymethyl)piperidin-3-ol]
< 10 nM	OC[C@@H]1CCN(c2cc(-c3ccc(C(F)(F)F)cc3)nc(-c3cccnc3)n2)C[C@@H]1O [Example 265, (3R,4S)-4-(hydroxymethyl)-1-(2-(pyridin-3-yl)-6-(4-(trifluoromethyl)phenyl)pyrimidin-4-yl)piperidin-3-ol]

Same assay, conditions: Assay 1: AhR-Luc Human Antagonism (IC50, nM), values marked *: kynurenine 50 μM, 6 hours

IC50	Compound
< 10 nM	O[C@H]1CCN(c2cc(-c3ccc(Cl)cc3)nc(-c3cccnc3)n2)C[C@@H]1F [Example 222, (3S,4S)-1-(6-(4-chlorophenyl)-2-(pyridin-3-yl)pyrimidin-4-yl)-3-fluoropiperidin-4-ol]
< 10 nM	O=C(CO)N1CCN(c2cc(-c3ccc(Cl)cc3)nc(-c3cccnc3)n2)CC1 [Example 223, 1-(4-(6-(4-chlorophenyl)-2-(pyridin-3-yl)pyrimidin-4-yl)piperazin-1-yl)-2-hydroxyethan-1-one]
< 10 nM	OCC1CCN(c2cc(-c3ccc(Cl)cc3)nc(-c3cccnc3)n2)CC1O (centres unmarked) [Example 233, 1-(6-(4-chlorophenyl)-2-(pyridin-3-yl)pyrimidin-4-yl)-4-(hydroxymethyl)piperidin-3-ol]
< 10 nM	O[C@@H]1CN(c2cc(-c3ccc(Cl)cc3)nc(-c3cccnc3)n2)C[C@H]1F [Example 234, (3R,4R)-1-(6-(4-chlorophenyl)-2-(pyridin-3-yl)pyrimidin-4-yl)-4-fluoropyrrolidin-3-ol]
